Experimental data published in US20220175776A1, “COMBINATION OF CHIR99021 AND VALPROIC ACID FOR TREATING HEARING LOSS” (Frequency Therapeutics, Inc., priority 2019, published 2022).
Read-outs that look alike come from different tables or passages of the source.

Key:
HDAC = settings: Table 4, HDAC class; cited from earlier work
Lgr5+ cochlear cells = experiment: Lgr5+ Assay (in vitro Lgr5+ cell proliferation assay); assay type: cell-based
[1] = human, in vivo
Text: Patients underwent physical examination of weight and height, vital signs (body temperature, pulse rate, blood pressure), 12-lead electrocardiogram (ECG), drug screen, clinical laboratory testing (hematology, serum chemistry, urinalysis), urine pregnancy test, and hepatitis B and C antibody tests.

EZH-1 = EZH-1 (Homo sapiens, UniProt Q92800); settings: Table 7, cited from earlier work
Chain of EZH-1 (Q92800 whole entry): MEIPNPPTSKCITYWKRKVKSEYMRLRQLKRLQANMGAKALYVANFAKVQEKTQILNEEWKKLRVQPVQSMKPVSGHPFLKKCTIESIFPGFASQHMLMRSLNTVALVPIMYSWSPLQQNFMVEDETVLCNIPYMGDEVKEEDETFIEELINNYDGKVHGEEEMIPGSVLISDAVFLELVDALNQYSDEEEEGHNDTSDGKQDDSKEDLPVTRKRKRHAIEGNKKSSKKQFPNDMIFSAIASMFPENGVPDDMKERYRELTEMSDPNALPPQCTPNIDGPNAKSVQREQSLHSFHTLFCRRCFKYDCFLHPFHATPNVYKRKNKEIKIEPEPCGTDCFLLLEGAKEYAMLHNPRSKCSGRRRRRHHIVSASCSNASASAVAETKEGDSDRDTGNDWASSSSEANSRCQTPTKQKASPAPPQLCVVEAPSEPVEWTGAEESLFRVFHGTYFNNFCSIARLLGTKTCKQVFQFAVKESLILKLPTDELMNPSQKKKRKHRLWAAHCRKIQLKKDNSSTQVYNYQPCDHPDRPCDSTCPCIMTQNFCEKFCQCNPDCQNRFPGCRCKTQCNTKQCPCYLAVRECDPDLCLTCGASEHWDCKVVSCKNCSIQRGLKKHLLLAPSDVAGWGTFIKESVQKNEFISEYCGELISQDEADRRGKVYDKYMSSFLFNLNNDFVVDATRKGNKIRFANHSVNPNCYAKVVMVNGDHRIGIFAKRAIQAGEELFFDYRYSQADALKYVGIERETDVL
Chain of EZH-1 (O75530 whole entry partner): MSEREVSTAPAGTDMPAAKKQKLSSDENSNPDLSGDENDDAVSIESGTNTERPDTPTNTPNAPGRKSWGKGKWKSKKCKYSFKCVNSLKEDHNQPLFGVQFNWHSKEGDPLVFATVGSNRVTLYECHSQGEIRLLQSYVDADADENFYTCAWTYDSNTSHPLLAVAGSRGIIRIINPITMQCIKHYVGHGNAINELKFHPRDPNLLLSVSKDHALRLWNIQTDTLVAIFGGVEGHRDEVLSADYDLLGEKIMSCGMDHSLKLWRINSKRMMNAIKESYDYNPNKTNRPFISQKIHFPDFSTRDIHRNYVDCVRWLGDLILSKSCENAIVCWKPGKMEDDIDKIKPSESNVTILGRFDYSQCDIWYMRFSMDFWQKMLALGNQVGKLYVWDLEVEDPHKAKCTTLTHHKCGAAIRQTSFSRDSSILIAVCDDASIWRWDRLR
Chain of EZH-1 (Q15022 whole entry partner): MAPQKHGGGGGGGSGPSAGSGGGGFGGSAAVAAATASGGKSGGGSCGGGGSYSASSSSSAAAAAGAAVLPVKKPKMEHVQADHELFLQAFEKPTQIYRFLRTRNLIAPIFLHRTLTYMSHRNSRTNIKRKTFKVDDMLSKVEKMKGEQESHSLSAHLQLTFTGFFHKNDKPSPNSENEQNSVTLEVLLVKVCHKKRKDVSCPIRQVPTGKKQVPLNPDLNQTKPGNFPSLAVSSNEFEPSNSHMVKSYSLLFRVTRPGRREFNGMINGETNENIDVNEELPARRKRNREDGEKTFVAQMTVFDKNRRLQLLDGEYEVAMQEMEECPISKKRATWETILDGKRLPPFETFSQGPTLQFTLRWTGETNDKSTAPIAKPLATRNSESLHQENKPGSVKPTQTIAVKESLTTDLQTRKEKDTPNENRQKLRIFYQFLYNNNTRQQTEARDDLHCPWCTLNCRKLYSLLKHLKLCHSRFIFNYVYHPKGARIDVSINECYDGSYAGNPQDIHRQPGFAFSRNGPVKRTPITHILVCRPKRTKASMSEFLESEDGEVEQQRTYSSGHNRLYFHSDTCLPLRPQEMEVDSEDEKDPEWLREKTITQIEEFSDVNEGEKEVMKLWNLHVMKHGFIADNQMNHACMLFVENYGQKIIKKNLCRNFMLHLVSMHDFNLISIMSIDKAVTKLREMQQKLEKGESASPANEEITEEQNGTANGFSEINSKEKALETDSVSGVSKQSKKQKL
Chain of EZH-1 (Q09028 whole entry partner): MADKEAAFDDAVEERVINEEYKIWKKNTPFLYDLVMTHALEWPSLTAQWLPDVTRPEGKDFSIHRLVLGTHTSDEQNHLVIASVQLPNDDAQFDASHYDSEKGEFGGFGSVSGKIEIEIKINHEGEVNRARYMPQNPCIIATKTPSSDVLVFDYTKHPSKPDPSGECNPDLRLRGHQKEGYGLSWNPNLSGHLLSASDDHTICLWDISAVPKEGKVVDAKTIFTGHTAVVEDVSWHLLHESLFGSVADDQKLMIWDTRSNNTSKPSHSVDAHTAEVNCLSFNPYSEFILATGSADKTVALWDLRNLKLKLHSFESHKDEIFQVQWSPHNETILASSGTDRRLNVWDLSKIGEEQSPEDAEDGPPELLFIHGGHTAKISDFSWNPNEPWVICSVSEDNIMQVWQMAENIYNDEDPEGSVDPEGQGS

LSD1 = LSD1 (Homo sapiens, UniProt O60341); settings: Table 6, LSD1; read-out: pKi or IC50 (converted); cited from earlier work
EZH2 [2] = target: EZH2 (Homo sapiens, UniProt O75530+Q15910); settings: Table 7; includes EED, SAM-competitive and SAH-hydrolase inhibitors; read-out: pKi or IC50 (converted); cited from earlier work
Chain of EZH2 (Homo sapiens, UniProt O75530+Q15910) (Q15910 whole entry): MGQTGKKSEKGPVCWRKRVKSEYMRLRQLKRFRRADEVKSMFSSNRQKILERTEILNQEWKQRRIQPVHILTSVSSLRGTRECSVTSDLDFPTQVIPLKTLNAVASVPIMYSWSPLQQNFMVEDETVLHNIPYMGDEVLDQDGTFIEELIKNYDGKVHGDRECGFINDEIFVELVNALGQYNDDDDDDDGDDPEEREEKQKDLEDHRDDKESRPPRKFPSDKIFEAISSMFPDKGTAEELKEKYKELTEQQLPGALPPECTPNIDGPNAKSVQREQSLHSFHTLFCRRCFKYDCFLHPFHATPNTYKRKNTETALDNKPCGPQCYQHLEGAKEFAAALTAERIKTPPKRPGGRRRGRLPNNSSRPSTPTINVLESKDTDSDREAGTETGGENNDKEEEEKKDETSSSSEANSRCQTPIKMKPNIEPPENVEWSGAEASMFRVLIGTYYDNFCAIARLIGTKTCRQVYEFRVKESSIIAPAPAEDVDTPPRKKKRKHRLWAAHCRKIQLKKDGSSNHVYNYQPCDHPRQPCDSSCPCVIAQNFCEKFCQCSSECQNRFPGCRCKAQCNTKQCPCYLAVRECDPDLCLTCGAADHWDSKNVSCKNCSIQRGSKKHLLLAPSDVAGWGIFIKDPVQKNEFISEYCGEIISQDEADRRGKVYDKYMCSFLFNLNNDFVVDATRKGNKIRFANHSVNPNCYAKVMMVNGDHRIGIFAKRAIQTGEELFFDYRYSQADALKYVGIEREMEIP
Chain of EZH2 (Homo sapiens, UniProt O75530+Q15910) (O75530 whole entry): as the sequence (O75530 whole entry partner) above
Chain of EZH2 (Homo sapiens, UniProt O75530+Q15910) (Q15022 whole entry partner): as the sequence (Q15022 whole entry partner) above
Chain of EZH2 (Homo sapiens, UniProt O75530+Q15910) (Q09028 whole entry partner): as the sequence (Q09028 whole entry partner) above

EZH2 [3] = target: EZH2 (Homo sapiens, UniProt Q15910); settings: Table 7; literature, cells not named; cited from earlier work
Chain of EZH2 (Homo sapiens, UniProt Q15910) (Q15910 whole entry, canonical isoform): as the sequence (Q15910 whole entry) above
Chain of EZH2 (Homo sapiens, UniProt Q15910) (O75530 whole entry partner, canonical isoform): as the sequence (O75530 whole entry partner) above
Chain of EZH2 (Homo sapiens, UniProt Q15910) (Q15022 whole entry partner, canonical isoform): as the sequence (Q15022 whole entry partner) above
Chain of EZH2 (Homo sapiens, UniProt Q15910) (Q09028 whole entry partner, canonical isoform): as the sequence (Q09028 whole entry partner) above

MAOs A and B = settings: Table 6, single value, isoform not stated; read-out: Select MAOs A and B; cited from earlier work
[4] = Table 6, human; cited from earlier work
TAZ = settings: Table 10; literature, cells not named; cited from earlier work
[5] = Perilymph sampling after intratympanic injection, mass spectrometry; assay type: in vivo; settings: mice, perilymph of 7 animals, within 0.5 hours after intratympanic injection of 10 µL with 87.6 mg/ml NaVPA and 1.39 mg/ml CHIR99021
Protocol: The effects of CHIR99021 and valproic acid (VPA) on hearing in mice with SNHL were examined. Ten-week-old CBA/CaJ mice were deafened using an established method in which mice were exposed to 8-16 kHz octave band noise for 2 hours at ≥116 dB (Wang et al., 2002). […] Auditory brainstem responses (ABRs) were obtained using tone-burst stimuli for frequencies spanning ˜80% of the cochlea 24 hours after noise administration to establish a baseline for recovery. Animals were dosed once following the 24 hour ABR. Distortion product otoacoustic emissions (DPOAEs) were not routinely analyzed since thresholds after treatment were above DPOAE detection levels. CHIR99021 and VPA were delivered locally by intratympanic injection into the middle ear using a pulled glass pipette, a technique that mimics the standard clinical middle ear injection technique used in humans. The delivery vehicle was adapted from previous work using thermo-reversible poloxamer gels to deliver drugs into the middle ear for diffusion into the cochlea (Salt et al, 2011; Wang et al, 2009). […] Using established techniques (Hirose et al., 2014), perilymph was sampled from 7 animals and analyzed using mass spectrometry to determine entry of CHIR99021 and VPA into the cochlea. Within 0.5 hours, CHIR99021 was detected at 3.5 μM+1.5 μM and VPA was detected at 310.3 μM+51.8 μM. […]

[6] = Table 1, GSK3 inhibitors, concentration range
[7] = Table 7, EZH2 inhibitors, concentration range
[8] = Table 10, TAZ activators, concentration range

Compound: C#CCC(CCCCCC)C(=O)O (stereo not drawn) [2-hexyl-4-pentynoic acid]
- Class selectivity (HDAC): Class I

Compound: N#Cc1ccc2[nH]c(O)c(-c3ccc(CN4CCOCC4)cn3)c2c1 [AZD 1080]
- Lgr5+ Assay (Lgr5+ cochlear cells; [6]): 1 to 5 µM

Compound: Cc1c[nH]c(-c2cnc(NCCNc3ccc(C#N)cn3)nc2-c2ccc(Cl)cc2Cl)n1 [CHIR99021]
- Lgr5+ Assay (Lgr5+ cochlear cells; [6]): 2 to 6 µM
- time until cleared from the systemic circulation [1]: ≤ 24 h

Compound: COc1cc(C)[nH]c(=O)c1CNC(=O)c1c(C)n([C@H](C)C2CCOCC2)c2ccccc12 [CPI-360]
- Lgr5+ Assay (Lgr5+ cochlear cells; [7]): 0.1 to 10 µM

Compound: CCC(CC)n1ccc2c(C(=O)NCc3c(C)cc(C)[nH]c3=O)cc(C#N)cc21 [Compound E11]
- Lgr5+ Assay (Lgr5+ cochlear cells; Table 7, EZH2 inhibitors, concentration): 5 µM
- Select vs EZH-1 (EZH-1; given as fold): 90x
- IC50 (LSD1): 0.243 µM
- IC50 (EZH2 [2]): 0.013 µM

Compound: Nc1nccc2c1ncn2[C@@H]1C=C(CO)[C@@H](O)[C@H]1O [DZNep]
- Lgr5+ Assay (Lgr5+ cochlear cells; Table 7, EZH2 inhibitors, result in words): Activity
- Lit Cell Poten (EZH2 [3]): 1 µM

Compound: CCc1c(N(CC)C2CCOCC2)cc2oc(C3CCN(C(C)C)CC3)cc2c1C(=O)NCc1c(C)cc(C)[nH]c1=O [EBI-2511]
- IC50 (EZH2 [2]): 0.004 µM

Compound: N#Cc1c2c(c3nncn3c1NCc1ccco1)CN(Cc1ccccc1)CC2 [EED162]
- IC50 (EZH2 [2]): 0.03 µM

Compound: CCCc1cc(C)[nH]c(=O)c1CNC(=O)c1cc(-c2ccnc(N3CCN(C)CC3)c2)cc2c1cnn2C(C)C [GSK343]
- Select vs EZH-1 (EZH-1; given as fold): 60x
- IC50 (EZH2 [2]): 0.0012 µM

Compound: Cc1cc(C)c(CNC(=O)c2cc(-c3ccc(N4CCN(C)CC4)nc3)cc3c2cnn3C(C)C)c(=O)[nH]1 [GSK926]
- IC50 (EZH2 [2]): 0.0079 µM

Compound: Cc1ccc(C(=O)Nc2c[nH]nc2C(=O)NCCCOC(C)C)cn1 [GSK XXII]
- Lgr5+ Assay (Lgr5+ cochlear cells; [6]): 0.2 to 1 µM

Compound: O=C(O)c1ccc(CN2CCC(CN[C@@H]3C[C@H]3c3ccccc3)CC2)cc1 [GSK-2879552]
- IC50 (MAOs A and B): 20 µM

Compound: CC(C)=CCC/C(C)=C/CC/C(C)=C/CC/C(C)=C/CO [Geranylgeraniol]
- IC50 (LSD1): 80 µM

Compound: C=CCNc1nc(N)c(C(=O)c2ccc(Cl)s2)s1 [IBS008738]
- Lgr5+ Assay (Lgr5+ cochlear cells; [8]): 1.1 to 30 µM

Compound: CN1CCN(C(=O)[C@H](CCCN[C@@H]2C[C@H]2c2ccc(F)cc2)NC(=O)c2ccc(-n3ccnn3)cc2)CC1 [IMG-7289]
- Human Plasma Conc, Cmax [4]: 63 ng/mL

Compound: Cc1cc(C)c(CN2CCc3c(Cl)cc(-c4c(C)noc4C)c(Cl)c3C2=O)c(=O)[nH]1 [PF-06726304]
- Lit Cell Poten (EZH2 [3]): 0.01 to 0.025 µM
- IC50 (EZH2 [2]): 0.0011 µM

Compound: COc1cc(C)[nH]c(=O)c1CN1CCc2c(Cl)cc([C@H](OC)C3COC3)c(Cl)c2C1=O [PF-06821497]
- Select vs EZH-1 (EZH-1; given as a concentration): 70 nM
- IC50 (EZH2 [2]): < 0.001 µM

Compound: C#CCN(C)Cc1ccccc1 [Pargyline]
- IC50 (LSD1): 1000 µM

Compound: Oc1ccc(C=Cc2cc(O)cc(O)c2)cc1 [Resveratrol]
- IC50 (LSD1): 15 µM

Compound: C/C(=N\NC(=O)c1cccc(S(=O)(=O)N2CCOCC2)c1)c1cc(Cl)ccc1O [SP-2509]
- IC50 (MAOs A and B): > 300 µM

Compound: Nc1ncnc2c1ncn2[C@@H]1O[C@H](C[C@@H](N)CC[C@H](N)C(=O)O)[C@@H](O)[C@H]1O [Sinefungin]
- IC50 (EZH2 [2]): 0.02 µM

Compound: CCCC(CCC)C(=O)[O-].[Na+] [Sodium Valproate]
- Class selectivity (HDAC): Class I

Compound: N[C@@H]1C[C@H]1c1ccccc1 [TCP]
- Human Plasma Conc, Cmax [4]: 30 to 200 ng/mL
- Lgr5+ Assay (Lgr5+ cochlear cells; Table 6, concentration range): 0.1 to 20 µM

Compound: CCCCc1nc2cc(-c3cccnc3)c(C)nc2n1Cc1ccc(-c2ccccc2-c2nn[nH]n2)cc1 [TM-25659]
- Lgr5+ Assay (Lgr5+ cochlear cells; [8]): 10 to 100 µM
- Lit Cell (TAZ): 10 to 100 µM

Compound: C=CCNc1nc(N)c(C(=O)c2ccc(F)s2)s1 [TT10]
- Lgr5+ Assay (Lgr5+ cochlear cells; [8]): 1 to 10 µM
- Lit Cell (TAZ): 1 µM

Compound: Cc1coc2c1C(=O)C(=O)c1c-2ccc2c1CC[C@H](O)[C@]2(C)O [Tanshindiol B]
- IC50 (EZH2 [2]): 0.52 µM

Compound: Cc1coc2c1C(=O)C(=O)c1c-2ccc2c1CC[C@@H](O)[C@]2(C)O [Tanshindiol C]
- IC50 (EZH2 [2]): 0.55 µM

Compound: CCCc1cc(C)[nH]c(=O)c1CNC(=O)c1cc(-c2ccc(N3CCN(C(C)C)CC3)nc2)cc2c1cnn2C(C)C [UNC1999]
- IC50 (EZH2 [2]): 0.01 µM

Compound: CCCc1cc(C)[nH]c(=O)c1CNC(=O)c1cc(-c2ccc(N3CCN(C(=O)CCOCCOCCOCCOCCOCCOCCOCCOCCOCCOCCOCCOCCNC(=O)CCCC[C@@H]4SC[C@@H]5NC(=O)N[C@@H]54)CC3)nc2)cc2c1cnn2C(C)C [UNC 2399]
- Lgr5+ Assay (Lgr5+ cochlear cells; [7]): 0.1 to 10 µM

Compound: CCCC(CCC)C(=O)O [VPA, valproic acid]
- concentration detected in perilymph [5]: 310.3 µM
- time to peak plasma concentrations [1]: ≤ 2 h
- time until cleared from the systemic circulation [1]: ≤ 24 h

Compound: CC(C)=CCC/C(C)=C/CC/C(C)=C/CC/C(C)=C/C(=O)O [geranylgeranoic acid]
- IC50 (LSD1): 120 µM

Compound: Thiourea
- IC50 (MAOs A and B): > 1250 µM
